Non-standard residues stand in square brackets, D forms with d. Residues, ends and D or L forms follow the SMILES beside them. *: point of attachment. Cyclohexanecarbonyl = O=C(C1CCCCC1)*; pGlu = O=C1CC[C@@H](C(=O)O)N1; Bn = c1ccc(C*)cc1; azaGly = NNC(=O)O
`CCCSC(=O)c1ccc([Si](CCC(F)(F)C(F)(F)C(F)(F)C(F)(F)C(F)(F)C(F)(F)C(F)(F)C(F)(F)C(F)(F)C(F)(F)F)(CCC(F)(F)C(F)(F)C(F)(F)C(F)(F)C(F)(F)C(F)(F)C(F)(F)C(F)(F)C(F)(F)C(F)(F)F)CCC(F)(F)C(F)(F)C(F)(F)C(F)(F)C(F)(F)C(F)(F)C(F)(F)C(F)(F)C(F)(F)C(F)(F)F)cc1` gave a melting point of 69 to 71 °C.

Work on `CNC(=O)[C@@H](NC(=O)[C@@H](NC(=O)c1c(I)c(NC(C)=O)c(I)c(C(=O)O)c1I)C(C)C)C(C)C` yielded a melting point of 247 to 248 °C.

For `CCCCCCCCCCCCCC(=O)Nc1ccc(Cl)c(NC2=NN(c3c(Cl)cc(Cl)cc3Cl)C(=O)C2Sc2nnnn2-c2cccc(C(=O)O)c2)c1` (stereo not drawn), the melting point was 155 to 165 °C.

Work on `C[Si](C)(C)CCS(=O)(=O)N=S(=O)(c1ccc(N)cc1)C1CC1` (racemic) yielded a melting point of 137 to 138 °C.

For `CC(C)C[C@H](NC(=O)[C@@H](Cc1ccccc1)NC(=O)[C@H](Cc1ccc(O)cc1)NC(=O)[C@H](CO)NC(=O)[C@H](Cc1c[nH]c2ccccc12)NC(=O)[C@@H](Cc1ccccc1)NC(=O)[C@@H]1CCC(=O)N1)C(=O)N[C@@H](CCCNC(=N)N)C(=O)N1CCC[C@H]1C(=O)NNC(N)=O` ([pGlu][dF]WSY[dF]LRP[azaGly]-NH2), the melting point was 179 to 180 °C.

Compound `CC(C)CCCC(C)C1CCC2C3CC=C4CC(N(CCCNC(=O)CCNC(=O)CCCCCNc5ccc([N+](=O)[O-])cc5[N+](=O)[O-])S(=O)(=O)c5ccccc5[N+](=O)[O-])CCC4(C)C3CCC12C` (stereo not drawn) has a melting point of 86 to 87 °C.

For `CC(C)[C@H](NC(=O)OCc1ccccn1)C(=O)N[C@@H](Cc1ccccc1)[C@H](O)[C@@H](O)[C@H](Cc1ccccc1)NC(=O)[C@@H](NC(=O)N(C)Cc1csc(N)n1)C(C)C`, the melting point was 188 to 192 °C.

`O=P(O)(O)CN(CP(=O)(O)O)CP(=O)(O)O` showed a melting point of 215 °C.

In the case of `COc1cc(OC)c(/C=C/C(c2ccc(OC)c(NC(=O)C(C)OC(C)=O)c2)S(=O)(=O)C(/C=C/c2c(OC)cc(OC)cc2OC)c2ccc(OC)c(NC(=O)C(C)OC(C)=O)c2)c(OC)c1` (stereo not drawn), the melting point is reported as 179 to 180 °C.

With `O=C1OC(O)c2cccc(F)c21` (stereo not drawn) the melting point was 126 to 127 °C.

Work on `O=C(CC(=O)c1cc(F)c(F)cc1F)OCc1ccc(OCCCCCCCCCCC2c3c(c4ccccc4c4ccccc34)-c3c2c2ccccc2c2ccccc32)cc1` yielded a melting point of 58 to 60 °C.

For `CC(C)CCCC(C)C1CCC2C3CC=C4CC(N(CCCNC(=O)CCNC(=O)CCCCCNc5ccc([N+](=O)[O-])c6nonc56)S(=O)(=O)c5ccccc5[N+](=O)[O-])CCC4(C)C3CCC12C` (stereo not drawn), the melting point was 86 to 89 °C.

Compound `CN(CC(O)C(CC1CCCCC1)NC(=O)C(Cc1c[nH]cn1)NC(=O)C(CC(=O)C(C)(C)C)Cc1ccccc1)C(Cc1c[nH]cn1)NC(=O)C(CC(=O)C(C)(C)C)Cc1ccccc1` (stereo not drawn) has a melting point of 118 °C.

For `Cn1nc(COC(=O)CCC(=O)OCc2nc(NCCCOc3cccc(CN4CCCCC4)c3)n(C)n2)nc1NCCCOc1cccc(CN2CCCCC2)c1`, the melting point was 80 to 81.5 °C.

Work on `FC(F)(Br)C(F)(Cl)Br` (stereo not drawn) yielded a melting point of -72.9 °C.

With `CC(C)[C@H](NC(=O)N(C)Cc1csc(N)n1)C(=O)N[C@@H](Cc1ccccc1)[C@H](O)[C@@H](O)[C@H](Cc1ccccc1)NC(=O)[C@@H](NC(=O)N(C)Cc1nccs1)C(C)C` the melting point was 108 to 111 °C.

In the case of `CC(=O)OCC(COC(C)=O)NC(=O)c1c(I)c(NC(=O)OCC2CO2)c(I)c(C(=O)NC(COC(C)=O)COC(C)=O)c1I` (stereo not drawn), the melting point is reported as 228 to 230 °C.

Compound `CC(O)CN(C)C` (stereo not drawn) has a melting point of -40 °C.

With `O=C(O)c1ccccc1Oc1ccc(C(F)(F)F)cc1N(S(=O)(=O)c1cc(C(F)(F)F)cc(C(F)(F)F)c1)S(=O)(=O)c1cc(C(F)(F)F)cc(C(F)(F)F)c1` the melting point was 204 to 205 °C.

In the case of `CC(=O)Nc1c(I)c(C(=O)N(C)CC(O)C(O)C(O)C(O)CO)c(I)c(N(C)C(C)=O)c1I` (stereo not drawn), the melting point is reported as 110 to 130 °C.

Work on `O=C(CC(CC(=O)OCc1cc(Br)cc(Br)c1O)C(=O)OCc1cc(Br)cc(Br)c1O)OCc1cc(Br)cc(Br)c1O` yielded a melting point of 100 to 102 °C.

With `NC(=NO)c1ccc(Cl)cc1Cl` the melting point was 149 to 151 °C.

In the case of `CCCCCCCCCCCCCC=CC(OC(=O)c1ccccc1)C(COC1OC(COCCC(C(=O)OC(C)(C)C)C(=O)OC(C)(C)C)C(O)C(O)C1O)NC(=O)CCCCCCCCCCCCCCC` (stereo not drawn), the melting point is reported as 47.5 to 48.5 °C.

With `NC(=O)c1c(C(=O)O)cnn1-c1ccccc1` the melting point was 234 to 235 °C.

For `CCCCCCCC/C=C\CCCCCCCCNC(=O)OCCCCCCCCCCCCNC(=O)OC1CCN(C(=O)Oc2ccc(Oc3ccccc3)cc2)CC1`, the melting point was 83 to 84 °C.

For `O=P(O)(C(F)(F)C(F)(F)C(F)(F)C(F)(F)C(F)(C(F)(F)F)C(F)(F)F)C(F)(F)C(F)(F)C(F)(F)C(F)(F)C(F)(C(F)(F)F)C(F)(F)F`, the melting point was 91 to 94 °C.

With `O=C(Oc1cccc2c(OC(=O)c3ccc(OCc4ccccc4)cc3)c3c(OC(=O)c4ccc(OCc5ccccc5)cc4)cccc3cc12)c1ccc(OCc2ccccc2)cc1` the melting point was 240 to 242 °C.

Work on `CC(=O)c1ccc(-n2c(-c3sc(Nc4ccc(Cl)cc4)nc3C)nc3ccccc3c2=O)cc1` yielded a melting point of 209 to 210 °C.

`CCCCCCCCCCCCCCCCCCSc1nc(SCCCCCCCCCCCCCCCCCC)nc(-c2cc(C(C)(C)C)c(O)c(C(C)(C)C)c2)n1` gave a melting point of 87 to 89 °C.

In the case of `CC(C)[C@@H](NC(=O)[C@@H](CSC(c1ccccc1)(c1ccccc1)c1ccccc1)NC(=O)[C@@H](C)NC(=O)C[C@H](O)/C=C/CCSC(c1ccccc1)(c1ccccc1)c1ccccc1)C(=O)NCC(=O)O`, the melting point is reported as 191 to 193 °C.

Work on `CCCCCCCCCCCCCCCCCCN(CCCCCCCCCCCCCCCCCC)C(=O)c1cc(NS(=O)(=O)c2ccc(Cl)nc2)c2ccccc2c1O` yielded a melting point of 80 to 83 °C.

`COc1cc(C2c3cc4c(cc3C(NC(=O)CNCCCN(CCCCNC(=O)OCc3ccccc3)C(=O)OCc3ccccc3)C3COC(=O)C23)OCO4)cc(OC)c1O` (stereo not drawn) gave a melting point of 255 °C.

Work on `CC(CCOc1c(I)cc(I)cc1I)Oc1c(I)cc(I)cc1I` (stereo not drawn) yielded a melting point of 173 to 175 °C.

`CC(C)Cn1c(C(O)c2ccc(Cl)cc2)nc2c(N)nc3ccccc3c21` (stereo not drawn) showed a melting point of 140 to 145 °C.

Compound `CC(=O)OC1C(=O)C2(C)C(O)CC3OCC3(OC(C)=O)C2C(OC(=O)c2ccccc2)C2(O)CC(OC(=O)C(OC(=O)CCC(=O)O)C(NC(=O)c3ccccc3)c3ccccc3)C(C)=C1C2(C)C` (stereo not drawn) has a melting point of 178 to 180 °C.

For `CCOC(=O)c1cnc2c(c(C)nn2C)c1NCS(=O)(=O)c1ccc(Oc2ccc(Cl)cc2)cc1`, the melting point was 52 to 55 °C.

In the case of `O=S(=NCCN1CCOCC1)(c1cccs1)c1cccs1`, the melting point is reported as 190 °C.

Compound `O=C(Nc1c(Cl)cncc1Cl)C(=O)c1cn(Cc2c(F)cccc2[N+](=O)[O-])c2c(O)cccc12` has a melting point of 308 to 310 °C.

In the case of `C=CCC1C=C(C)CC(C)CC(OC)C2OC(O)(C(C)CC2OC)C(O)C(=O)N2CCCCC2C(=O)OC(C(C)=CC2CCC(O)C(OC)C2)C(C)C(O)CC1O` (stereo not drawn), the melting point is reported as 130 to 150 °C.

Work on `CCCCC1(CC)CS(=O)(=O)c2ccc(N(C)C)cc2C(c2cccc(NC(=O)COCCOCC(=O)NCc3ccc(N4C(=O)C(CCC(O)c5ccc(F)cc5)C4c4ccc(OC)cc4)cc3)c2)C1O` (stereo not drawn) yielded a melting point of 116 to 125 °C.

In the case of `CC(C)(C)c1cc(SC(CCCC(Sc2cc(C(C)(C)C)c(O)c(C(C)(C)C)c2)Sc2cc(C(C)(C)C)c(O)c(C(C)(C)C)c2)Sc2cc(C(C)(C)C)c(O)c(C(C)(C)C)c2)cc(C(C)(C)C)c1O`, the melting point is reported as 148 to 153 °C.

In the case of `[C-]#[N+]Cc1c(OC)cc(OC)cc1OC`, the melting point is reported as 107 to 109 °C.

For `C=CC(=O)OCCCCCCOc1ccc(C(=O)Oc2ccc(OC(=O)c3ccc(OCCCCCCOC(=O)C=C)cc3)c(C(=O)OCCCCCCCCOC(=O)c3ccco3)c2)cc1`, the melting point was 36 °C.

Compound `COc1ccc(C2Sc3ccccc3N(CCN(C)C)C(=O)C2OC(=O)C=CC(=O)OC2C(=O)N(CCN(C)C)c3ccccc3SC2c2ccc(OC)cc2)cc1` (stereo not drawn) has a melting point of 112 to 114 °C.

With `[C-]#[N+]c1c(Cl)cc(OC)cc1Cl` the melting point was 110 to 112 °C.

`COc1cc(NC(=O)N2CCCC2)c(S(C)(=N)=O)cc1OC` (stereo not drawn) showed a melting point of 312 to 314 °C.

`COc1cc2c(cc1I)C(=O)CC2` gave a melting point of 129 to 130 °C.

Work on `COC(=O)C(CC(C)C)NC(=O)C(Cc1ccc(OCc2ccccc2)cc1)NC(=O)C(COCc1ccccc1)NC(=O)C(Cc1c[nH]c2ccccc12)NC(=O)C1CCCCC1` (Cyclohexanecarbonyl-WS(Bn)Y(Bn)L-OMe; configuration not given here) yielded a melting point of 158 to 160 °C.

Compound `CCOC(=O)C(C)OC(=O)c1c(I)c(NC(C)=O)c(I)c(C(=O)OC(C)C(=O)OCC)c1I` (stereo not drawn) has a melting point of 160 to 165 °C.

With `CCC1(CC)c2cc(-c3nc4ccccc4s3)ccc2-c2ccc(C(CCCCCN)c3ccc4c(c3)C(CC)(CC)c3cc(-c5nc6ccccc6s5)ccc3-4)cc21` the melting point was 108 to 109 °C.

`CCCCCCc1cc(C=C2C(=O)N(CC(CC)CCCC)C(=O)C(C#N)=C2C)sc1-c1ccc(-c2ccc(-c3sc(-c4ccc(N(c5ccccc5)c5ccccc5)cc4)cc3CCCCCC)s2)s1` (stereo not drawn) showed a melting point of 153 to 158 °C.

`CCCCCCCCCCCCCCCCNc1ccc(C(=O)OCC(COC(=O)c2ccc(NCCCCCCCCCCCCCCCC)cc2)OC(=O)c2ccc(NCCCCCCCCCCCCCCCC)cc2)cc1` showed a melting point of 117 to 118 °C.

In the case of `CC(C)(C)c1cc(C(C)(C)C)c2op(Op3oc4c(C(C)(C)C)cc(C(C)(C)C)cc4c4cc(C(C)(C)C)cc(C(C)(C)C)c4o3)oc3c(C(C)(C)C)cc(C(C)(C)C)cc3c2c1`, the melting point is reported as 269 °C.

`CCCCc1nc2c(N)nc3ccccc3c2n1CCCCNC(=O)Nc1ccc(Oc2ccc(NC(=O)NCCCCn3c(CCCC)nc4c(N)nc5ccccc5c43)cc2)cc1` gave a melting point of 152 to 156 °C.

With `CC(C)(C)c1cc(C(C)(C)C)c(OP2OP(Oc3c(C(C)(C)C)cc(C(C)(C)C)cc3C(C)(C)C)OP(Oc3c(C(C)(C)C)cc(C(C)(C)C)cc3C(C)(C)C)O2)c(C(C)(C)C)c1` (stereo not drawn) the melting point was 226 to 244 °C.

For `C=C(C)C(=O)OCCCCCCCCCCCOc1ccc(-c2nc(-c3ccccc3)nc(-c3ccc(OCCCCCCCCCCCOC(=O)C(=C)C)cc3O)n2)c(O)c1`, the melting point was 68.3 °C.

For `CCNC(=O)[C@@H](C)NC(=O)[C@H](Cc1c[nH]cn1)NC(=O)[C@H](COCc1ccccc1)NC(=O)[C@H](Cc1ccc(OCc2ccccc2)cc1)NC(=O)[C@H](Cc1c[nH]cn1)NCc1ccccc1`, the melting point was 83 to 88 °C.

`COc1cc(OC)c(C=CC(c2ccc(OC)c(CC(=O)O)c2)(S(N)(=O)=O)S(=O)(=O)C(C=Cc2c(OC)cc(OC)cc2OC)(c2ccc(OC)c(CC(=O)O)c2)S(N)(=O)=O)c(OC)c1` (stereo not drawn) showed a melting point of 180 to 184 °C.
